Laboratory results published in EP0020266A1, “Derivatives of cyano-2-hydroxy-3-benzofurane and benzo(b)thiophene, their preparation and their use in therapy” (ANVAR Agence Nationale de Valorisation de la Recherche, priority 1979, dated 1980).
Where “and” joins values, the source holds several entries; their conditions need not be identical. Identical values can stand only once. Like-named read-outs stand apart in the source and are kept apart here.

Experiments:
[1] = molecular target: T1, récepteurs S2-bronchiques (Cavia porcellus, UniProt Q8K4Z4); test: Inhibition of the protection given by isoprenaline against serotonin bronchospasm (Konzett and Roessler, modified by Halpern); format: in vivo, cobaye; settings: guinea pig, i.v. 250 µg/kg; for inhibition at 0.25 mg/kg: iv, number in parentheses
T1 construct: a été étudiée chez le cobaye, à raison de cinq animaux par essai; from tissue; host or cells: whole guinea pig (bronchi, in vivo)
Description: L'action β2-adrénolytique au niveau bronchique a été étudiée chez le cobaye, à raison de cinq animaux par essai, en recherchant l'inhibition de la protection exercée par l'isoprénaline vis-à-vis du bronchospasme à la sérotonine, selon la méthode de Konzett et Roessler (Arch. Exper. Pathol. Pharmakol., 1940, 195, 71) modifiée par Halpern.
Les composés sont administrés par voie i.v. à la dose de 250 µg/kg.

récepteurs β1-cardiaques = molecular target: T2, récepteurs β1-cardiaques (Cavia porcellus, UniProt H0W3H1); test: Antagonism of the effects of isoprenaline on the isolated guinea-pig atrium (method of Giudicelli, Schmitt and Boissier); parameters: species or system cobaye; settings: for Effet inotrope + de l'isoprénaline Concentration active Après produit: isoprenaline concentration giving a 10 mm increase of the trace amplitude; for Effet chronotrope + de l'isoprénaline Concentration active Après produit: isoprenaline concentration giving an increase of 30 beats per min
T2 construct: sur l'oreillette isolée de cobaye; from tissue; host or cells: isolated guinea-pig atrium
From the text: L'activité 8-lytique a été recherchée au niveau des récepteurs β1-cardiaques en déterminant l'antagonisme des effets de l'isoprénaline sur l'oreillette isolée de cobaye, selon la méthode de Giudicelli, Schmitt et Boissier (J. Pharmacol. Exper. Thérapeut., 1969, 168, 116). […]
Afin de ne pas surcharger inutilement les tableaux suivants, seuls les résultats correspondant au composé n° 2 sont indiqués.

[2] = dose of product 1.10^-10 mole/cm^3
[3] = dose of product 1.10^-10 mole/cm^3, ratio of active concentrations after and before addition of product
[4] = dose of product 5.10^-10 mole/cm^3

T1 sequence (Q8K4Z4 whole entry): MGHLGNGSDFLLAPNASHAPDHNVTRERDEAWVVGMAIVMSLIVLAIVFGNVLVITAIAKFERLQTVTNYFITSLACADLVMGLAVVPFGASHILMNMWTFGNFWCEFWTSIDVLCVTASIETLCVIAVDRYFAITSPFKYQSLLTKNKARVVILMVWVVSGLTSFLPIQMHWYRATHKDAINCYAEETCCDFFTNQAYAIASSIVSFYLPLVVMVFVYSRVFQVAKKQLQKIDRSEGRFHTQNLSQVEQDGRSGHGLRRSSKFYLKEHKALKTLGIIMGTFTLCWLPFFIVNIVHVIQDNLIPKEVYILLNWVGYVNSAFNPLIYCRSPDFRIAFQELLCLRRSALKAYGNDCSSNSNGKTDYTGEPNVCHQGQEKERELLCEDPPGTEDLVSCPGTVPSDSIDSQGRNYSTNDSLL
T2 sequence (H0W3H1 1-470): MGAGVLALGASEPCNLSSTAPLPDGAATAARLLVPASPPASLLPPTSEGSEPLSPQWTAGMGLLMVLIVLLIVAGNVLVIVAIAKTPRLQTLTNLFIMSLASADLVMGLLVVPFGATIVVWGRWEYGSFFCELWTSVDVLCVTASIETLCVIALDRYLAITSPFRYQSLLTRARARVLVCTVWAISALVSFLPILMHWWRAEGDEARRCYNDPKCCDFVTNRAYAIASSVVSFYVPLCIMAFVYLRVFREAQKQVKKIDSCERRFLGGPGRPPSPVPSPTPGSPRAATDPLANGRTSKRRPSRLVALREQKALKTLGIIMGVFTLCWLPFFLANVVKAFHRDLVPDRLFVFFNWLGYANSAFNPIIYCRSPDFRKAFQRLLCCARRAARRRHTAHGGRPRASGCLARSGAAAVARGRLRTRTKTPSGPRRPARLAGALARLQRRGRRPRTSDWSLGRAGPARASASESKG

| Structure (SMILES) | Moyenne de l'amplitude Après administration, au bout de 1 min ([1]; 1 min after administration, five animals) | Moyenne de l'amplitude Après administration, au bout de 8 min ([1]; 8 min after administration, five animals) | Moyenne de l'amplitude Après administration, au bout de 16 min ([1]; 16 min after administration, five animals) | Moyenne de l'amplitude Après administration, au bout de 30 min ([1]; 30 min after administration, five animals) | Moyenne de l'amplitude Après administration, au bout de 60 min ([1]; 60 min after administration, five animals) | blocage des récepteurs S2-bronchiques ([1]; compared with propranolol, summary of Table III) | inhibition at 0.25 mg/kg ([1]; 1 min after administration, read-out: pourcentages d'inhibition de l'isoprénaline, 1 min (converted)) | inhibition at 0.25 mg/kg ([1]; 8 min after administration, read-out: pourcentages d'inhibition de l'isoprénaline, 8 min (converted)) | inhibition at 0.25 mg/kg ([1]; 16 min after administration, read-out: pourcentages d'inhibition de l'isoprénaline, 16 min (converted)) | activité β1-stimulante (récepteurs β1-cardiaques; at low concentrations, compared with propranolol, summary of Table II) | Effet inotrope + de l'isoprénaline Concentration active Après produit (récepteurs β1-cardiaques; [2]) | Effet chronotrope + de l'isoprénaline Concentration active Après produit (récepteurs β1-cardiaques; [2]) | Effet chronotrope + de l'isoprénaline Index d'activité (récepteurs β1-cardiaques; [3]) | Effet inotrope + de l'isoprénaline Index d'activité (récepteurs β1-cardiaques; [3]) | Effet chronotrope + de l'isoprénaline Concentration active Après produit (récepteurs β1-cardiaques; [4]) | antagonisme des effets de l'isoprénaline (effet inotrope + et effet chronotrope +) (récepteurs β1-cardiaques; isolated atrium, single concentration 1.10^-7 g/cm^3, five preparations per product, given as maleate) | Effet inotrope + de l'isoprénaline Concentration active Après produit (récepteurs β1-cardiaques; [4]) |
| --- | --- | --- | --- | --- | --- | --- | --- | --- | --- | --- | --- | --- | --- | --- | --- | --- | --- |
| CC(C)(C)NCC(O)COc1c(C#N)sc2ccccc12 (stereo not drawn) [compound 2] | 20,4 ± 1,4 | 3,8 ± 2,4 | 0,6 ± 0,6 | 0 | 0 | très fugace | 82% | 15% | 2% | proche de celle du propranolol | 7,6.10^-8 | 3,8.10^-8 | 7 | 6,5 | 1,5.10^-7 and 1,8.10^-7 | suffisamment efficace |  |
| CC(C)NCC(O)COc1cccc2ccccc12 (stereo not drawn) [propranolol, isopropylamino-1 (naphtyl-1 oxy)-3 propanol-2, reference compound] |  |  |  |  |  |  |  |  |  |  |  |  |  |  | 1,8.10^-7 |  | 5,8.10^-8 |
